Test results taken from PubChem BioAssay (NCI).
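Exposure lasted 48 hours, with cells grown in 96-well plates and compounds tested at five concentrations. TGI: total growth inhibition.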

How the values were obtained:
Test in all cases: inhibition of tumour cell growth, NCI panel, 48 h
[1] = system: HT29 colon
[2] = system: OVCAR-5 ovarian
[3] = system: CCRF-CEM leukemia
[4] = system: HCT-15 colon
[5] = system: SK-MEL-2 melanoma
[6] = system: M19-MEL melanoma
[7] = system: ACHN renal
[8] = system: TK-10 renal
[9] = system: U251 CNS
[10] = system: LOX IMVI melanoma
[11] = system: M14 melanoma
[12] = system: RXF 393 renal
[13] = system: DLD-1 colon
[14] = system: OVCAR-3 ovarian
[15] = system: HOP-62 NSCLC
[16] = system: LXFL 529 NSCLC
[17] = system: COLO 205 colon
[18] = system: HCT-116 colon
[19] = system: SNB-78 CNS
[20] = system: SN12C renal
[21] = system: SF-295 CNS
[22] = system: SF-268 CNS
[23] = system: SK-OV-3 ovarian
[24] = system: DMS 114 small cell lung
[25] = system: SK-MEL-5 melanoma
[26] = system: A498 renal
[27] = system: SNB-19 CNS
[28] = system: NCI-H226 lung
[29] = system: UACC-62 melanoma
[30] = system: IGROV1 ovarian
[31] = system: EKVX NSCLC
[32] = system: OVCAR-8 ovarian
[33] = system: A549 NSCLC
[34] = system: RPMI-8226 leukemia
[35] = system: HOP-18 NSCLC
[36] = system: XF 498 CNS
[37] = system: UO-31 renal
[38] = system: SNB-75 CNS
[39] = system: HL-60(TB) leukemia
[40] = system: NCI-H522 lung
[41] = system: RXF-631 renal
[42] = system: HCC-2998 colon
[43] = system: UACC-257 melanoma
[44] = system: NCI-H23 lung
[45] = system: 786-0 renal
[46] = system: OVCAR-4 ovarian
[47] = system: MALME-3M melanoma
[48] = system: SK-MEL-28 melanoma
[49] = system: SW-620 colon
[50] = system: SF-539 CNS
[51] = system: NCI-H460 lung
[52] = system: HOP-92 NSCLC
[53] = system: KM20L2 colon
[54] = system: KM12 colon
[55] = system: MOLT-4 leukemia
[56] = system: SR leukemia
[57] = system: K-562 leukemia
[58] = system: DU-145 prostate

Measured: TGI

CCCCCCCCCCCCCC(=O)NCO
not listed: [55] | [56] | [57] | [58]
> 100 µM: all other assays above

C=C=C(Sc1ccccc1)C(C)(C)O
not listed: [15] | [19] | [24] | [25] | [31] | [33]
> 100 µM: all other assays above
